According to US8034780B2, “Isolation, purification, and structure elucidation of the antiproliferative compound coibamide A” (priority 2007, dated 2011):
“And” between values parts separate entries of the source, which are not always exact repeats. Identical values can stand only once. Bridge positions count the residues as written; N and C are the ends. Square brackets hold non-standard residues; d marks the D form. Peptide text beside a SMILES is read from it. * marks the point of attachment. ξ: configuration not given here. NMeI = CC[CH](C)[CH](NC)C(=O)O; ξNMe2Val = CC(C)C(C(=O)*)N(C)C; NMeT = CN[CH](C(=O)O)[CH](C)O; NMeL = CN[CH](CC(C)C)C(=O)O; Hiv = CC(C)[CH](O)C(=O)O; NMeS = CN[CH](CO)C(=O)O; NMeA = CN[CH](C)C(=O)O

Key:
[1] = system: MDA-MB-435 (breast cancer); assay: NCI60 screen, MDA-MB-435; type: cell-based, human; details: second screen
Experimental: (§1) Coibamide A was tested against the National Cancer Institute NCI60 tumor cell lines (dtp.nci.nih.gov/branches/btb/ivclsp.html; Shoemaker, R. H. (2006) Nat. Rev. Cancer, 6:813-823), which comprises 60 human cancer cell lines including leukemias, melanomas, ovarian, renal, prostate, breast, colon, lung and central nervous system (CNS) cancers (the data from two screens are provided in FIGS. 3A and 3B). […] Growth inhibition of 50% (GI50) is the drug concentration resulting in a 50% reduction in the net protein increase in control cells during the drug incubation. Similarly, total growth inhibition (TGI) is the drug concentration resulting in zero net protein increase in control cells, and the lethal concentration of 50% (LC50) is the drug concentration resulting in a 50% reduction in the measured protein at the end of the drug treatment as compared to that at the beginning, (a net loss of cells following treatment). […] Coibamide A produced mean cytostatic (GI50 and TGI with range) and cytotoxic (LC50 and range) parameters as follows: log GI50, −8.04 (2.96); log TGI, −5.85 (3.43); log LC50, −5.11 (2.66). These log mean values of <−4 with log range values of >2 indicate both potency and histological selectivity (FIG. 4).

RXF 393 (renal cancer) = assay: NCI60 screen, RXF 393; type: cell-based, human; details: second screen
Experimental: as §1

LOX IMVI (melanoma) = assay: NCI60 screen, LOX IMVI; type: cell-based, human
Experimental: as §1

HCC-2998 (colon cancer) = assay: NCI60 screen, HCC-2998; type: cell-based, human
Experimental: as §1

[2] = system: National Cancer Institute NCI60 tumor cell lines; assay: NCI60 tumor cell line panel; type: cell-based, human
Experimental: as §1

COLO 205 (colon cancer) = assay: NCI60 screen, COLO 205; type: cell-based, human
Experimental: as §1

T-47D (breast cancer) = assay: NCI60 screen, T-47D; type: cell-based, human
Experimental: as §1

HT29 (colon cancer) = assay: NCI60 screen, HT29; type: cell-based, human
Experimental: as §1

SK-OV-3 (ovarian cancer) = assay: NCI60 screen, SK-OV-3; type: cell-based, human; details: first screen
Experimental: as §1

UACC-62 = assay: NCI60 screen, UACC-62; type: cell-based, human; details: second screen
Experimental: as §1

[3] = system: MDA-MB-231/ATCC (breast cancer); assay: NCI60 screen, MDA-MB-231/ATCC; type: cell-based, human
Experimental: as §1

HOP-92 (NSCLC) = assay: NCI60 screen, HOP-92; type: cell-based, human
Experimental: as §1

MDA-MB-435 cells = assay: cell cycle analysis by flow cytometry; type: cell-based; details: 24 hours
Experimental: For cell cycle analysis, MDA-MB-435 cells were treated for 24 hours with vehicle or sample. The cells were harvested and stained with Krishan's reagent. This suspension was analyzed using a Becton Dickinson FACScan flow cytometer, and the data were plotted as propidium iodide intensity versus the number of events. Quality control samples were run with each assay to ensure instrument linearity and resolution.

SF-539 (CNS cancer) = assay: NCI60 screen, SF-539; type: cell-based, human
Experimental: as §1

A498 (renal cancer) = assay: NCI60 screen, A498; type: cell-based, human; details: second screen
Experimental: as §1

SF-295 (CNS cancer) = assay: NCI60 screen, SF-295; type: cell-based, human; details: first screen
Experimental: as §1

SK-MEL-5 (melanoma) = assay: NCI60 screen, SK-MEL-5; type: cell-based, human
Experimental: as §1

[4] = system: histone deacetylase (HDAC); assay: HDAC inhibition; type: biochemical
HL60(TB) (leukemia) = assay: NCI60 screen, HL60(TB); type: cell-based, human; details: second screen
SNB-75 (CNS cancer) = assay: NCI60 screen, SNB-75; type: cell-based, human; details: second screen
Experimental: as §1

SR (leukemia) = assay: NCI60 screen, SR; type: cell-based, human
Experimental: as §1

[5] = system: HeLa cervical cancer cells; assay: immunofluorescence study in HeLa cells; type: cell-based
Experimental: (§2) Cytoskeletal assays were carried out on 1. […] Therefore, it was hypothesized that 1 might cause mitotic abnormalities by a non-tubulin dependent mechanism, and flow cytometry studies were initiated to look at the effect of the compound on cell cycle distribution (FIG. 2).

[6] = system: neuro-2a mouse neuroblastoma cells; assay: MTT cytotoxicity, neuro-2a cells; type: cell-based; details: mouse/rat NG108-15, N2a, 48 hours, read-out: LC50 (the source's name)
Experimental: (§3) Cytotoxicity was measured in NCI-H460 human lung tumor cells and neuro-2a mouse neuroblastoma cells using the method of Alley et. al. (Cancer Res. (1988) 48:589-601) with cell viability being determined by 3-(4,5-dimethylthiazol-2-yl)-2,5-diphenyltetrazolium bromide (MTT) reduction (Manger et al. (1995) J. AOAC Int., 78:521-527). Cells were seeded in 96-well plates at 6000 cells/well in 180 μL of RPMI 1640 medium with 10% fetal bovine serum. Twenty-four hours later, the test chemical was dissolved in DMSO, diluted into medium without fetal bovine serum and added at 20 μL/well. DMSO was less than 0.5% of the final concentration. After 48 hours, the medium was removed and cell viability determined.

[7] = system: NCI-H460 human lung tumor cells; assay: MTT cytotoxicity, NCI-H460 cells; type: cell-based; details: 48 hours, read-out: LC50 (the source's name)
Experimental: as §3

M-14 (melanoma) = assay: NCI60 screen, M-14; type: cell-based, human; details: second screen
Experimental: as §1

A-10 cells = assay: cytoskeletal immunofluorescence study in A-10 cells; type: cell-based
Experimental: as §2

[8] = mean over the panel, log range in brackets, preliminary

For `CCC(C)C1C(=O)NC(C)C(=O)N(C)C(CC(C)C)C(=O)NC(Cc2ccc(OC)cc2)C(=O)N(C)C(C)C(=O)OC(C)C(N(C)C(=O)C(CC(C)C)N(C)C(=O)C(COC)N(C)C(=O)C(OC(=O)C(C(C)C)N(C)C)C(C)C)C(=O)N(C)C(COC)C(=O)N1C` (centres unmarked) [Coibamide A] (ξNMe2Val-[Hiv][NMeS](Me)[NMeL][NMeT][NMeS](Me)[NMeI]A[NMeL]Y(Me)[NMeA]; ester 4-C; configuration not given here), the TGI [1] was 100 nM, the TGI (RXF 393 (renal cancer)) was 82.3 nM and the TGI (LOX IMVI (melanoma); first screen) was 6.6 nM. It also gave a TGI (LOX IMVI (melanoma); second screen) of 7.4 nM, a GI50 (HCC-2998 (colon cancer); Homo sapiens, HCC 2998, undefined activity) of under 1 nM and a TGI (HCC-2998 (colon cancer); first screen) of 8.3 nM. For the same compound, the TGI (HCC-2998 (colon cancer); second screen) was 93.7 nM, the “activity by cancer type from the mean graph for GI50 values” [2] was “consistently active against leukemias, CNS, colon, and breast cancer cells” and the GI50 values ([2]; 53 of the 55 cancer cell lines screened) was “Nanomolar or better”. The CC50 ([2]; Homo sapiens, mean over the panel, log range in brackets, preliminary, read-out: mean log LC50 (range) (converted)) was 7760 nM, the “mean log GI50 (range)” value [2, 8] was −8.04 (2.96) and the “mean log TGI (range)” value [2, 8] was −5.85 (3.43). The CC50 (COLO 205 (colon cancer); Homo sapiens, COLO 205, NCI60 screen, read-out: LC50 (the source's name)) was 35.8 nM, the TGI (COLO 205 (colon cancer); first screen) was 4.9 nM and the TGI (COLO 205 (colon cancer); second screen) was 15.7 nM. It also gave a GI50 (T-47D (breast cancer); Homo sapiens, T47D, undefined activity) of under 1 nM, a TGI (T-47D (breast cancer); first screen) of 5.4 nM and an LC50 (concentration giving 50% net cell loss) (HT29 (colon cancer); Homo sapiens, HT-29, NCI60 screen) of 93.3 nM. It also gave a GI50 (HT29 (colon cancer); Homo sapiens, HT-29, undefined activity) of under 1 nM, a TGI (HT29 (colon cancer); first screen) of 10.4 nM and a TGI (HT29 (colon cancer); second screen) of 14.6 nM. The TGI (SK-OV-3 (ovarian cancer)) was 9.8 nM, the TGI (UACC-62) was 80.6 nM and the TGI ([3]; first screen) was 25.1 nM. For the same compound, the TGI ([3]; second screen) was 2.8 nM, the TGI (HOP-92 (NSCLC); first screen) was 25.4 nM and the TGI (HOP-92 (NSCLC); second screen) was 11.4 nM. For the same compound, the “cells in G2/M” value (MDA-MB-435 cells) was “no change in G2/M”, the mitotic accumulation (MDA-MB-435 cells) was “does not cause any significant mitotic accumulation” and the “cells in G1 phase” value (MDA-MB-435 cells; dose dependent) was “large increase in the number of cells in G1 phase”. For the same compound, the “cells in S phase” value (MDA-MB-435 cells; dose dependent) was “reduction of cells in S phase”, the TGI (SF-539 (CNS cancer); first screen) was 30.3 nM and the TGI (SF-539 (CNS cancer); second screen) was 28.7 nM. It also gave a TGI (A498 (renal cancer)) of 74.4 nM, a TGI (SF-295 (CNS cancer)) of 21.9 nM and a GI50 (SK-MEL-5 (melanoma); Homo sapiens, SK-MEL-5, undefined activity) of under 1 nM. The TGI (SK-MEL-5 (melanoma); first screen) was 6.0 nM, the TGI (SK-MEL-5 (melanoma); second screen) was 26.9 nM and the HDAC inhibitor activity [4] was “no significant activity”. It also gave a TGI (HL60(TB) (leukemia)) of 7.4 nM, a TGI (SNB-75 (CNS cancer)) of 7.6 nM and a TGI (SR (leukemia); first screen) of 16.6 nM. For the same compound, the TGI (SR (leukemia); second screen) was 87.0 nM, the mitotic structures ([5]; 100 nM concentration) was “two aberrant mitotic structures were observed” and the “phenotypic effects on microtubules or nuclear structures” value ([5]; immunofluorescence) was “did not show any expected phenotypic effects on microtubules or on nuclear structures”. For the same compound, the CC50 [6] was > 0.03 µg/mL and > 23 nM, the CC50 [7] was > 0.03 µg/mL and > 23 nM and the TGI (M-14 (melanoma)) was 11.2 nM. For the same compound, the microtubule changes (A-10 cells) was “did not show any of the expected microtubule changes” and the mitotic spindles (A-10 cells) was “some monopolar mitotic spindles were observed”.
